Laboratory results taken from a flash point compilation (Sun et al. 2020).
Where a name gives a salt, the structure may show the parent alone.

Compound	flash point [°C]
CCCCOCCOC(C)=O [2-butoxyethyl acetate]	71.00
COS(=O)(=O)OC [dimethyl sulfate]	83.00
CCOP(=S)(OCC)SCn1c(=O)oc2cc(Cl)ccc21	100.00
C=CCSSCCC [1-(prop-2-enyldisulfanyl)propane]	56.00
CCC(C)(C)c1ccc(O)cc1 [4-(2-methylbutan-2-yl)phenol]	111.00
CC(C)(C)Br [2-bromo-2-methylpropane]	-16.00
OCC#CCO [but-2-yne-1,4-diol]	128.00
Cc1ccccc1F [1-fluoro-2-methylbenzene]	13.00
CCCC [butane]	-60.00
Cc1c2ccccc2c(C)c2c1ccc1ccccc12 [7,12-dimethylbenzo[a]anthracene]	86.00
OC[C@@H](O)[C@@H](O)[C@H](O)[C@@H](O)CO [(2R,3R,4R,5S)-hexane-1,2,3,4,5,6-hexol]	283.00
CC/C(=C(/CC)c1ccc(O)cc1)c1ccc(O)cc1 [4-[(E)-4-(4-hydroxyphenyl)hex-3-en-3-yl]phenol]	104.00
CCCCOC(=O)[C@@H](C)Oc1ccc(Oc2ccc(C#N)cc2F)cc1 [butyl (2R)-2-[4-(4-cyano-2-fluorophenoxy)phenoxy]propanoate]	122.00
COC(=O)Nc1cccc(OC(=O)Nc2cccc(C)c2)c1 [[3-(methoxycarbonylamino)phenyl] N-(3-methylphenyl)carbamate]	74.00
CCNc1ccccc1 [N-ethylaniline]	85.00
C[O-].[K+] [potassium;methanolate]	11.00
c1ccc2occc2c1 [1-benzofuran]	56.00
Cc1cc(-c2ccc(N)c(C)c2)ccc1N [4-(4-amino-3-methylphenyl)-2-methylaniline]	244.00
CCCCOCCOCCOCCOCCO [2-[2-[2-(2-butoxyethoxy)ethoxy]ethoxy]ethanol]	166.00
CC(=O)OC(Cl)CCl (stereo not drawn) [1,2-dichloroethyl acetate]	153.00

Compound	flash point [°C]
Oc1ccccc1-c1ccccc1 [2-phenylphenol]	124.00
NCc1ccccc1 [phenylmethanamine]	76.00
CN [methanamine]	0.00
ClCc1ccccc1Cl [1-chloro-2-(chloromethyl)benzene]	91.00
Cc1ccc2ccccc2c1 [2-methylnaphthalene]	98.00
Cc1ccc(N)c([N+](=O)[O-])c1 [4-methyl-2-nitroaniline]	157.00
COc1ccc(OC)cc1 [1,4-dimethoxybenzene]	88.00
CC1=C(C(=O)Nc2ccccc2)SCCO1 [6-methyl-N-phenyl-2,3-dihydro-1,4-oxathiine-5-carboxamide]	203.00
CCCOCCC [1-propoxypropane]	21.00
Oc1ccc2ccccc2c1 [naphthalen-2-ol]	153.00
CC(C)(C)C(=O)C(Oc1ccc(Cl)cc1)n1cncn1 (stereo not drawn)	72.00
C1=Cc2cccc3cccc1c23 [acenaphthylene]	122.00
CC[Si](Cl)(Cl)CC [dichloro(diethyl)silane]	24.00
CCCC[O-].CCCC[O-].CCCC[O-].CCCC[O-].[Ti+4] [butan-1-olate;titanium(4+)]	77.00
CCN1CCOCC1 [4-ethylmorpholine]	28.00
Cc1cc(C)cc(O)c1 [3,5-dimethylphenol]	80.00
CCCCN(CCCC)CCCC [N,N-dibutylbutan-1-amine]	85.00
CCCCCCCCCCCCN [dodecan-1-amine]	178.00
Nc1cccnc1 [pyridin-3-amine]	190.00

Now from value to compound:

flash point [°C]	Compound
40.00	CC1CCC2CC1C2(C)C (stereo not drawn) [2,6,6-trimethylbicyclo[3.1.1]heptane]
36.00	CC(=O)CCC(C)C [5-methylhexan-2-one]
33.00	CC(C)OCC1CO1 (stereo not drawn) [2-(propan-2-yloxymethyl)oxirane]
23.00	CCCCC(C)=O [hexan-2-one]
-34.00	C1=CCCC1 [cyclopentene]
56.00	CC(C)C(=O)O [2-methylpropanoic acid]
51.00	COC(=O)C(C)O (stereo not drawn) [methyl 2-hydroxypropanoate]
37.00	C1CCCNCC1 [azepane]
116.00	CCSC(=O)N(CC(C)C)CC(C)C [S-ethyl N,N-bis(2-methylpropyl)carbamothioate]
78.00	CCc1ccccc1O [2-ethylphenol]
96.00	NC(=O)/N=N/C(N)=O [(E)-carbamoyliminourea]
10.00	C=C(C)C(=O)OC [methyl 2-methylprop-2-enoate]
13.00	CCC(=O)CC [pentan-3-one]
103.00	COC(=O)CCCC(=O)OC [dimethyl pentanedioate]
166.00	O=S1(=O)CCCC1 [thiolane 1,1-dioxide]
22.00	CCCCC(=O)OC [methyl pentanoate]
177.00	CCCCC(CC)CN1C(=O)C2C3C=CC(C3)C2C1=O (stereo not drawn)
93.00	Cc1ccccc1OCC1CO1 (stereo not drawn) [2-[(2-methylphenoxy)methyl]oxirane]

Remark: another data set of the same source

Compound	flash point [°C]
CC=CC#N [2-butenenitrile]	17
c1ccoc1 [furan]	-36
CCC#CCCCCC [3-nonyne]	38
C#CCCCCl [5-chloro-1-pentyne]	15
CCCCCC(C)CCC (stereo not drawn) [4-methylnonane]	38
CC(C)c1ccccc1 [cumene]	31
CCCCC(C)CCC (stereo not drawn) [4-methyloctane]	22
CC(C)c1cccc(O)c1 [3-isopropylphenol]	104
CCc1ccc(Cl)cc1 [1-chloro-4-ethylbenzene]	62
CCCCc1ccccc1 [butylbenzene]	50
C=C(C)CO [2-methyl-2-propen-1-ol]	33
CC/C=C\CC [cis-3-hexene]	-25
CC(=O)C(C)(C)C [pinacolone]	5
CCCCC(C)CCCC [5-methylnonane]	37
CCCCCCI [1-iodohexane]	61
CCCCCCCCCCO [1-decanol]	108
CC(C)=CC(C)(C)C [2,4,4-trimethyl-2-pentene]	-1
CCCC(C)C(C)(C)C (stereo not drawn) [2,2,3-trimethylhexane]	15
COC(C)=O [methylacetate]	-13
CCC(C)=O [2-butanone]	-7
CC(C)(C)N [tert-butylamine]	-38
CCCC[N+](=O)[O-] [1-nitrobutane]	47
CC(C)(C)c1ccccc1O [2-tert-butylphenol]	102
CC(C)(C)C(C)(C)C [2,2,3,3-tetramethylbutane]	-0
CC#CCC [2-pentyne]	-30
CCI [iodoethane]	-5
C=CC(=C)Cl [2-chloro-1,3-butadiene]	-20

Further lines, results first:

flash point [°C]	Compound
25	CCCCCC=O [hexanal]
18	CCC1CCCCC1 [ethylcyclohexane]
91	CCCC(C)C(=O)O (stereo not drawn) [2-methylpentanoicacid]
43	CC1CC(C)(C)CC1=O (stereo not drawn) [2,4,4-trimethylcyclopentanone]
88	OC1CCCCCCC1 [cyclooctanol]
8	CCCCC=O [pentanal]
37	C=CCOC(=O)C(=C)C [allylmethacrylate]
59	CCC1CCCCC1=O (stereo not drawn) [2-ethylcyclohexanone]
27	CC(C)C(C)O (stereo not drawn) [3-methyl-2-butanol]
35	CCCOC(=O)CCC [propylbutanoate]
95	CC(C)c1ccccc1N [2-isopropylaniline]
82	CCCCCCCC(C)O (stereo not drawn) [2-nonanol]
8	Cc1cccs1 [2-methylthiophene]
154	C=CCCCCCCCCCCCCCCCC [1-octadecene]
15	CCC(C)OC(C)CC (stereo not drawn) [di-sec-butylether]
59	CCOCc1ccccc1 [benzylethylether]
90	Cc1ccccc1I [2-iodotoluene]
68	CC(C)(N)CO [2-amino-2-methyl-1-propanol]
-2	CC(C)CCC(C)C [2,5-dimethylhexane]
23	CCCO [1-propanol]
46	CC1CCCCC1=O (stereo not drawn) [2-methylcyclohexanone]
13	CCC(C)CC(C)(C)C (stereo not drawn) [2,2,4-trimethylhexane]
-17	C=COC(C)(C)C [tert-butylvinylether]
65	CCc1cccc(C)c1C [1-ethyl-2,3-dimethylbenzene]
6	C[C@@H]1CCC[C@H](C)C1 [cis-1,3-dimethylcyclohexane]
2	C=CCC(C)CCC (stereo not drawn) [4-methyl-1-heptene]
5	CCC(C)(C)C(C)C [2,3,3-trimethylpentane]
49	C=C(C)C(=O)OCCCC [butylmethacrylate]
-9	C=COCC(C)C [isobutylvinylether]
